Test results: ChEMBL document CHEMBL4477234, “Potent Suppressive Effects of 1-Piperidinylimidazole Based Novel P2X7 Receptor Antagonists on Cancer Cell Migration and Invasion” (J Med Chem, 2016)

How the values were obtained:
P2X purinoceptor 7 [1] = target: T1, P2X purinoceptor 7 (Homo sapiens, UniProt Q99572); assay: Antagonist activity at human P2X7 receptor expressed in HEK293 cells assessed as inhibition of BzATP-induced EtBr uptake measured after 2 hrs by fluorescence analysis; format: cell-based
T1 sequence (Q99572 whole entry): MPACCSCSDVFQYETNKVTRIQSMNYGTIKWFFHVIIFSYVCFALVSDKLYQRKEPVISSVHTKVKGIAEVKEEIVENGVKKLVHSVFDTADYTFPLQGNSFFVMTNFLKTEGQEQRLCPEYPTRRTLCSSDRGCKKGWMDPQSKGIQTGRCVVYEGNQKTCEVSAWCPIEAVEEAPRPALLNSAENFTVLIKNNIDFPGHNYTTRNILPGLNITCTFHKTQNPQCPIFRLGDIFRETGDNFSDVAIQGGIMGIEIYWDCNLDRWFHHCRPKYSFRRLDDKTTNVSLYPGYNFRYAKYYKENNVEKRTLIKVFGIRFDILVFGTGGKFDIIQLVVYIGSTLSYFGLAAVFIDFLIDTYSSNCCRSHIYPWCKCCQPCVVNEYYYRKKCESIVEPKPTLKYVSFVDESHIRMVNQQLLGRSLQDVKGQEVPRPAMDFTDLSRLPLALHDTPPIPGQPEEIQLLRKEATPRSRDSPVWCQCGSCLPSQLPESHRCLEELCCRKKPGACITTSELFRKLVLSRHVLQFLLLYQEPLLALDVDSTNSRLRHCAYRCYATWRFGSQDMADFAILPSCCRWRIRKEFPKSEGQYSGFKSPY

P2X purinoceptor 7 [2] = target: T1, P2X purinoceptor 7; assay: Antagonist activity at human P2X7 receptor in LPS/IFN-gamma-differentiated human THP-1 cells assessed as suppression of BzATP-stimulated IL-1beta release per-incubated for 30 mins before BzATP addition and measured after 30 mins by ELISA; format: cell-based

Row | IC50 (P2X purinoceptor 7 [1]) [nM] | IC50 (P2X purinoceptor 7 [2]) [nM] | Compound
1 | 62 | 26 | CNC(=O)c1cccc(S(=O)(=O)Oc2ccc(-c3cncn3C3CCN(C(=O)c4ccc([N+](=O)[O-])cc4)CC3)cc2)c1
2 | 109 | 4.7 | CC(C)(O)c1ccc(C(=O)N2CCC(n3cncc3-c3ccc(OS(=O)(=O)c4cccc5cnccc45)cc3)CC2)cc1
3 | 565 |  | Nc1cccc(S(=O)(=O)Oc2ccc(-c3cncn3C3CCN(C(=O)c4ccc(Cl)c(C(F)(F)F)c4)CC3)cc2)c1
4 | 152 |  | O=C(NC1CC1)c1cccc(S(=O)(=O)Oc2ccc(-c3cncn3C3CCN(C(=O)c4ccc([N+](=O)[O-])cc4)CC3)cc2)c1
5 | > 10000 |  | O=C(Oc1ccc(-c2cncn2C2CCN(C(=O)c3ccc(Cl)c(C(F)(F)F)c3)CC2)cc1)c1cccs1
6 | 45 | 22 | O=C(c1ccc(Cl)c(C(F)(F)F)c1)N1CCC(n2cncc2-c2ccc(OS(=O)(=O)c3cccc4cnccc34)cc2)CC1
7 | 32 | 10 | CN(C)c1ccc(C(=O)N2CCC(n3cncc3-c3ccc(OS(=O)(=O)c4cccc(C#N)c4)cc3)CC2)cc1
8 | 269 |  | N#Cc1ccc(C(=O)N2CCC(n3cncc3-c3ccc(OS(=O)(=O)c4cccc5cnccc45)cc3)CC2)cc1
9 | > 10000 |  | CC(=O)Oc1ccc(-c2cncn2C2CCN(C(=O)c3ccc(Cl)c(C(F)(F)F)c3)CC2)cc1
10 | 45 | 13 | N#Cc1cccc(S(=O)(=O)Oc2ccc(-c3cncn3C3CCN(C(=O)c4ccc([N+](=O)[O-])cc4)CC3)cc2)c1
11 | 55 | 37 | CC(C)c1ccc(C(=O)N2CCC(n3cncc3-c3ccc(OS(=O)(=O)c4cccc5cnccc45)cc3)CC2)cc1
12 | 112 | 1.76 | CNC(=O)c1cccc(S(=O)(=O)Oc2ccc(-c3cncn3C3CCN(C(=O)c4ccc(Cl)c(C(F)(F)F)c4)CC3)cc2)c1
13 | 1440 |  | CCN(CC)c1ccc(C(=O)N2CCC(n3cncc3-c3ccc(OS(=O)(=O)c4cccc5cnccc45)cc3)CC2)cc1
14 | 1570 |  | CS(=O)(=O)Oc1ccc(-c2cncn2C2CCN(C(=O)c3ccc(Cl)c(C(F)(F)F)c3)CC2)cc1
15 | 702 |  | O=C(c1ccc(Cl)c(C(F)(F)F)c1)N1CCC(n2cncc2-c2ccc(OS(=O)(=O)c3ccccc3)cc2)CC1
16 | 249 |  | O=C(c1ccc(Cl)c(C(F)(F)F)c1)N1CCC(n2cncc2-c2ccc(OS(=O)(=O)c3cccc([N+](=O)[O-])c3)cc2)CC1
17 | 77 | 64 | COc1ccc(C(=O)N2CCC(n3cncc3-c3ccc(OS(=O)(=O)c4cccc5cnccc45)cc3)CC2)cc1
18 | 88 | 58 | O=C(NC1CC1)c1cccc(S(=O)(=O)Oc2ccc(-c3cncn3C3CCN(C(=O)c4ccc(Cl)c(C(F)(F)F)c4)CC3)cc2)c1
19 | 202 |  | CNC(=O)c1cccc(S(=O)(=O)Oc2ccc(-c3cncn3C3CCN(C(=O)c4ccc(S(C)(=O)=O)cc4)CC3)cc2)c1
20 | 312 |  | COc1ccc(C(=O)N2CCC(n3cncc3-c3ccc(OS(=O)(=O)c4cccc(C#N)c4)cc3)CC2)cc1
21 | 41 | 121 | CN(C)c1ccc(C(=O)N2CCC(c3nc4cc(OS(=O)(=O)c5cccc6cnccc56)ccc4[nH]3)CC2)cc1
22 | 25 | 22 | CNC(=O)c1cccc(S(=O)(=O)Oc2ccc(-c3cncn3C3CCN(C(=O)c4ccc(N(C)C)cc4)CC3)cc2)c1

Row | IC50 (P2X purinoceptor 7 [1]) [nM] | IC50 (P2X purinoceptor 7 [2]) [nM] | Compound
23 | 896 |  | O=C(c1ccc(Cl)c(C(F)(F)F)c1)N1CCC(n2cncc2-c2ccc(OS(=O)(=O)c3cccc(Br)c3)cc2)CC1
24 | 3520 |  | O=C(c1ccc(Cl)c(C(F)(F)F)c1)N1CCC(n2cncc2-c2ccc(OS(=O)(=O)c3cccc4ccccc34)cc2)CC1
25 | 27 | 32 | O=C(c1ccc([N+](=O)[O-])cc1)N1CCN(c2cc(=O)[nH]c(=O)n2Cc2ccc(OS(=O)(=O)c3cccc4cnccc34)cc2)CC1
26 | 244 |  | COc1ccc(C(=O)N2CCC(n3cncc3-c3ccc(OS(=O)(=O)c4cccc(C(=O)NC5CC5)c4)cc3)CC2)cc1
27 | 1.49 | 8.29 | O=C(c1ccc([N+](=O)[O-])cc1)N1CCC(n2cncc2-c2ccc(OS(=O)(=O)c3cccc4cnccc34)cc2)CC1
28 | > 10000 |  | O=C(Oc1ccc(-c2cncn2C2CCN(C(=O)c3ccc(Cl)c(C(F)(F)F)c3)CC2)cc1)c1cccc2cnccc12
29 | 44 | 50 | CS(=O)(=O)c1ccc(C(=O)N2CCN(c3cc(=O)[nH]c(=O)n3Cc3ccc(OS(=O)(=O)c4cccc5cnccc45)cc3)CC2)cc1
30 | 238 |  | O=C(c1ccc(Cl)c(C(F)(F)F)c1)N1CCC(n2cncc2-c2ccc(OS(=O)(=O)c3cccs3)cc2)CC1
31 | 25 | 0.32 | CS(=O)(=O)c1ccc(C(=O)N2CCC(n3cncc3-c3ccc(OS(=O)(=O)c4cccc5cnccc45)cc3)CC2)cc1
32 | 202 |  | CCN(CC)C(=O)c1cccc(S(=O)(=O)Oc2ccc(-c3cncn3C3CCN(C(=O)c4ccc(Cl)c(C(F)(F)F)c4)CC3)cc2)c1
33 | 73 | 4.28 | N#Cc1cccc(S(=O)(=O)Oc2ccc(-c3cncn3C3CCN(C(=O)c4ccc(Cl)c(C(F)(F)F)c4)CC3)cc2)c1
34 | 31 | 210 | O=C(c1ccc(Cl)c(C(F)(F)F)c1)N1CCC(c2nc3cc(OS(=O)(=O)c4cccc5cnccc45)ccc3[nH]2)CC1
35 | 155 |  | CN(C)c1cccc(C(=O)N2CCC(n3cncc3-c3ccc(OS(=O)(=O)c4cccc5cnccc45)cc3)CC2)c1
36 | 40 | 18 | O=C(c1ccc(Cl)c(C(F)(F)F)c1)N1CCN(c2cc(=O)[nH]c(=O)n2Cc2ccc(OS(=O)(=O)c3cccc4cnccc34)cc2)CC1
37 | 187 |  | O=C(c1ccc(Oc2ccccc2)cc1)N1CCC(n2cncc2-c2ccc(OS(=O)(=O)c3cccc4cnccc34)cc2)CC1
38 | 13 | 17 | O=C(c1ccc([N+](=O)[O-])cc1)N1CCC(c2nc3cc(OS(=O)(=O)c4cccc5cnccc45)ccc3[nH]2)CC1
39 | 159 |  | CNC(=O)c1cccc(S(=O)(=O)Oc2ccc(-c3cncn3C3CCN(C(=O)c4ccc(OC)cc4)CC3)cc2)c1
40 | > 10000 |  | O=C(Oc1ccc(-c2cncn2C2CCN(C(=O)c3ccc(Cl)c(C(F)(F)F)c3)CC2)cc1)c1ccccc1
41 | 430 | 552 | O=C(c1ccc(Cl)c(C(F)(F)F)c1)N1CCC(n2ccc3cc(OS(=O)(=O)c4cccc5cnccc45)ccc32)CC1
42 | 259 |  | COc1ccc(C(=O)N2CCC(n3cncc3-c3ccc(OS(=O)(=O)c4cccc5cnccc45)cc3)CC2)cc1OC
43 | 400 |  | CS(=O)(=O)c1ccc(C(=O)N2CCC(n3cncc3-c3ccc(OS(=O)(=O)c4cccc(C(=O)NC5CC5)c4)cc3)CC2)cc1
44 | 143 |  | CS(=O)(=O)c1ccc(C(=O)N2CCC(n3cncc3-c3ccc(OS(=O)(=O)c4cccc(C#N)c4)cc3)CC2)cc1
